Experimental data published in BindingDB's records for patent US20240316020 (Icagen, 2024).

Target: Potassium voltage-gated channel subfamily KQT member 2 (Homo sapiens, UniProt O43526)
Experiment: SyncroPatch 384 (Nanion) High Throughput Electrophysiology
Experimental: Human Kv7.2, Kv7.4 or Kv7.5/7.3 channels were evaluated using a voltage protocol in which cells were voltage-clamped at a holding potential of -60 mV. Potassium currents were continuously activated with a series of three voltage steps to -30 mV for 3 seconds, 40 mV for 1 second and -90 mV for 4 seconds with 12 seconds between successive voltage sweeps. Potassium currents were measured from the -90 mV repolarizing step. Baseline current was assessed for 3.5 minutes prior to the addition of 5.6 uM zinc pyrithione (1 uM for Kv7.4). Kv7.2, Kv7.4 or Kv7.5/7.3 current in the presence of zinc pyrithione was acquired over five minutes to allow channels to reach steady state activity prior to addition of test agents. Channel activity was monitored for three minutes preceding the addition of 30 uM ML-213 (3 minutes) to achieve maximum activation.

Chain of Potassium voltage-gated channel subfamily KQT member 2 (O43526 whole entry): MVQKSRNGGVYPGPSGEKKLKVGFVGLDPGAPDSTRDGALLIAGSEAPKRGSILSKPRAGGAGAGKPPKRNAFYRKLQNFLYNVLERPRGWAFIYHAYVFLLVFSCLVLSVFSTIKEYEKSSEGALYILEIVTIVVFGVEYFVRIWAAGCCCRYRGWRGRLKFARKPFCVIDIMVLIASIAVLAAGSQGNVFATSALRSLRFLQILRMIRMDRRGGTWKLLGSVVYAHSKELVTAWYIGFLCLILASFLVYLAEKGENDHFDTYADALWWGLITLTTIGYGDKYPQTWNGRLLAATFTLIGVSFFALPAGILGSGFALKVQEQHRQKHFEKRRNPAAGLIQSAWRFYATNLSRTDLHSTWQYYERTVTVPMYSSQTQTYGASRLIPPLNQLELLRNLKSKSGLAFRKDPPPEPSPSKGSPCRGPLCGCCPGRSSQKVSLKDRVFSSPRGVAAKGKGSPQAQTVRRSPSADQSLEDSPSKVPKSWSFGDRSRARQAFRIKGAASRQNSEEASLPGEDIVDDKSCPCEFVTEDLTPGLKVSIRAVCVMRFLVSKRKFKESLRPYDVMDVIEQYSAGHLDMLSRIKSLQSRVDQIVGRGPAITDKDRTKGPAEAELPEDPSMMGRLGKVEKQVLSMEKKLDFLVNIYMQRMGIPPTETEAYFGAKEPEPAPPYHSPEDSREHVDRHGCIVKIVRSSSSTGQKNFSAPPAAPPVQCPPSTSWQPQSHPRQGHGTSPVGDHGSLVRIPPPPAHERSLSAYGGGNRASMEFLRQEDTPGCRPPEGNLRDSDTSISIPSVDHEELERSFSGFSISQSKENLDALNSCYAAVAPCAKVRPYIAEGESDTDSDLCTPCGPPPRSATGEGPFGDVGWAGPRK

EC50: 3.63 µM
Compound: O=C(NCc1ccnc(-n2cccn2)c1)NC1COC2(CCCC2)C1 (stereo unspecified) [US20240316020, Example 1]
